Patent US9896418B2, “Aryl ethers and uses thereof” (Peloton Therapeutics, Inc., priority 2013, dated 2018)

tested on: HIF-2α HIS TAG-PASB Domain; experiment: HIF-2α Scintillation Proximity Assay (SPA); assay type: binding
Method: The percent inhibition was determined and IC50 values were calculated using the Dotmatics system based on the following equation: % inhibition=[(high control−sample)/(high control−low control)]×100.

SMILES	IC50
C=CCC1(O)c2c(S(=O)(=O)C(F)F)ccc(Oc3cc(F)cc(F)c3)c2CC1(F)F (stereo not shown) [Compound 12, 1-allyl-7-(difluoromethylsulfonyl)-4-(3,5-difluorophenoxy)-2,2-difluoro-indan-1-ol]	9.8 µM
N#Cc1cc(F)cc(Oc2ccc(S(=O)(=O)C(F)(F)F)c(C#N)c2Br)c1 [Compound 100, 2-Bromo-3-(3-cyano-5-fluorophenoxy)-6-((trifluoromethyl)sulfonyl)benzonitrile]	0.094 µM
N#CN=S(=O)(CF)c1ccc(Oc2cc(F)cc(C#N)c2)c2c1[C@H](O)CC2 (stereo partly drawn) [Compound 283, N—(((R)-7-(3-cyano-5-fluorophenoxy)-3-hydroxy-2,3-dihydro-1H-inden-4-yl)(fluoromethyl)(oxo)-λ^6-sulfanylidene)cyanamide]	1.4 µM
O=S(=O)(c1ccc(Oc2cc(F)cc(Cl)c2)c(CO)c1)C(F)(F)F [Compound 122, (2-(3-Chloro-5-fluorophenoxy)-5-((trifluoromethyl)sulfonyl)phenyl)methanol]	1.7 µM
N#Cc1cc(F)cc(Oc2ccc(S(=O)(=O)C(F)F)cc2C#N)c1 [Compound 134, 2-(3-Cyano-5-fluorophenoxy)-5-((difluoromethyl)sulfonyl)benzonitrile]	0.45 µM
O=S(=O)(c1ccc(Oc2cncc(Cl)c2)c2c1[C@H](O)CC2)C(F)(F)F [Compound 184, (R)-4-((5-Chloropyridin-3-yl)oxy)-7-((trifluoromethyl)sulfonyl)-2,3-dihydro-1H-inden-1-ol]	0.72 µM
CS(=O)(=O)c1ccc(Oc2cncc(Cl)c2)c2c1[C@H](O)C(F)(F)C2 [Example 115, (S)-4-((5-Chloropyridin-3-yl)oxy)-2,2-difluoro-7-(methylsulfonyl)-2,3-dihydro-1H-inden-1-ol]	0.35 µM
CS(=O)(=O)c1ccc(Oc2cncc(Br)c2)c2c1C(=O)C(F)(F)C2 [Compound 323, 4-((5-Bromopyridin-3-yl)oxy)-2,2-difluoro-7-(methylsulfonyl)-2,3-dihydro-1H-inden-1-one]	5.25 µM
CS(=O)(=O)c1ccc(Oc2cc(F)cc(C#N)c2)c2c1C(O)CCC2 (stereo not shown) [Compound 95, 3-Fluoro-5-((5-hydroxy-4-(methylsulfonyl)-5,6,7,8-tetrahydronaphthalen-1-yl)oxy)benzonitrile]	3.6 µM
CCS(=O)(=O)c1ccc(Oc2cc(F)cc(C#N)c2)c2c1C(O)CC2 (stereo not shown) [Compound 205, 3-((7-(Ethylsulfonyl)-1-hydroxy-2,3-dihydro-1H-inden-4-yl)oxy)-5-fluorobenzonitrile]	2.4 µM
COC(=O)/C=C/c1c(S(=O)(=O)C(F)(F)F)ccc(Oc2cc(F)cc(C#N)c2)c1C [Compound 147, Methyl (E)-3-[3-(3-cyano-5-fluoro-phenoxy)-2-methyl-6-(trifluoromethylsulfonyl)phenyl]prop-2-enoate]	0.11 µM
O=S(=O)(c1ccc(Oc2c(F)ccc3[nH]ncc23)c2c1C(O)C(F)(F)C2)C(F)(F)F (stereo not shown) [Compound 244, 2,2-Difluoro-4-((5-fluoro-1H-indazol-4-yl)oxy)-7-((trifluoromethyl)sulfonyl)-2,3-dihydro-1H-inden-1-ol]	1 µM
CS(=O)(=O)c1ccc(Oc2cc(F)cc(Cl)c2)c2c1[C@H](O)C(F)(F)C2 [Example 160, (1S)-4-(3-Chloro-5-fluoro-phenoxy)-2,2-difluoro-7-methylsulfonyl-indan-1-ol]	< 0.005 µM
O=S(=O)(c1ccc(Oc2cc(Cl)cc(Cl)c2)c(Br)c1)C(F)(F)F [Compound 172, 2-Bromo-1-(3,5-dichlorophenoxy)-4-((trifluoromethyl)sulfonyl)benzene]	0.31 µM
CNCc1c(S(=O)(=O)C(F)(F)F)ccc(Oc2cc(F)cc(Cl)c2)c1Cl [Compound 113, 1-(2-Chloro-3-(3-chloro-5-fluorophenoxy)-6-((trifluoromethyl)sulfonyl)phenyl)-N-methylmethanamine]	2.3 µM
N#Cc1cc(F)cc(Oc2ccc(S(=N)(=O)C(F)(F)F)cc2C#N)c1 (stereo not shown) [Compound 73, 2-(3-cyano-5-fluorophenoxy)-5-((trifluoromethyl)sulfonimidoyl)benzonitrile]	1.4 µM
